For orientation: IC50 means the point on the concentration scale where inhibition reaches its midpoint.

Values joined by “and” are separate entries in the source; they are usually repeats but may differ in a detail not shown here. Identical values can stand only once. Like-named read-outs stand apart in the source and are kept apart here. Residues, ends and D or L forms follow the SMILES beside them. No end group written: not given here.

Here are results for 38 molecules from paper PMC11544891, “Uncovering the Potential Somatic Angiotensin-Converting Enzyme (sACE) Inhibitory Capacity of Peptides from Acheta domesticus: Insights from In Vitro Gastrointestinal Digestion” (Foods, 2024).

One assay has as its system sACE. Particulars: cited from earlier work.
A further assay relates to thoracic aortic rings. Details: method as in earlier work. Particulars: Table S2; ref [19] of supplement; cited from earlier work.
The subject of assay [1] is spontaneously hypertensive rats (SHR). Particulars: cited from earlier work; for anti-hypertensive activity in SHR: Table S2, ref [19] of supplement.
Assay [2] concerns the target T1, somatic angiotensin-converting enzyme (sACE) (Oryctolagus cuniculus, UniProt P12822).
T1 construct: the ACE working solution was prepared according to Murray et al. [28] using rabbit lung; from tissue; host or cells: rabbit lung
T1 sequence (P12822 34-1310): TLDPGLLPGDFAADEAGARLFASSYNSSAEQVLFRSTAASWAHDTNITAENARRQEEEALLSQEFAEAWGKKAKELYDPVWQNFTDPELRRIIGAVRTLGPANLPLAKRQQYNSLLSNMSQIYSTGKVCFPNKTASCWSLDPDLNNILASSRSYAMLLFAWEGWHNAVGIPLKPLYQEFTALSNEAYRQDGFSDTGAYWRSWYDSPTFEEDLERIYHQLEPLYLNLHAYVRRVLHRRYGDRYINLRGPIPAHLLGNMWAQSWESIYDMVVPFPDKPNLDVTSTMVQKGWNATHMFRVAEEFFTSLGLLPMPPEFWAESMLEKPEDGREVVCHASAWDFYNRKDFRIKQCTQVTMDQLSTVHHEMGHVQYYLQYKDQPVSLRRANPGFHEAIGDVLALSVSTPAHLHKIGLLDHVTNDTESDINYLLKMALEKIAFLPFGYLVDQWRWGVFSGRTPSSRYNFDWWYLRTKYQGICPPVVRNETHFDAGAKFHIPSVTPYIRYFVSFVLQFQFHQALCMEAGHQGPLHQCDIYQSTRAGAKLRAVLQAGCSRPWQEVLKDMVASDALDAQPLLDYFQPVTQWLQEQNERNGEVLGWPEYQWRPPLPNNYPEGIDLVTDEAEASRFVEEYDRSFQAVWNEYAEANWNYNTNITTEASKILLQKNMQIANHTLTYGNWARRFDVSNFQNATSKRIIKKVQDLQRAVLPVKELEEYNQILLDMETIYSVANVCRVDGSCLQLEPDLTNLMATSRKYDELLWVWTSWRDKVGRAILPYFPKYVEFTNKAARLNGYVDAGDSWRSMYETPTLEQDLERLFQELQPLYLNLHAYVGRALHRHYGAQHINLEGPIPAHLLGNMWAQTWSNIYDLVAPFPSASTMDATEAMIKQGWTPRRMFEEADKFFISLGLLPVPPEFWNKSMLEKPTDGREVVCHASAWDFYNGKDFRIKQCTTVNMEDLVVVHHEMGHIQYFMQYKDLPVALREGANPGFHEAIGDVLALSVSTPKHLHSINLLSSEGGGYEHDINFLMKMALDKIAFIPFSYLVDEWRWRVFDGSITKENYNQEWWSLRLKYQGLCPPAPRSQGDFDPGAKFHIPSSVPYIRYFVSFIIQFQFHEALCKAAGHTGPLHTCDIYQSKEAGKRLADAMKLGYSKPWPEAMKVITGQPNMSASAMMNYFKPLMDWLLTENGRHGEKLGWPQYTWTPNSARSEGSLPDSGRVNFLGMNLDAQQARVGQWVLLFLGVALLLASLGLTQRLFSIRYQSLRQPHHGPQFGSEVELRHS
Briefly: sACE-inhibition fluorimetric assay (o-Abz-Gly-p-Phe(NO2)-Pro-OH substrate). Format: biochemical, rabbit. Particulars: synthetic peptides; mean ± SD, n = 3; read-out: ACE-Inhibitory Capacity Expressed as IC50 (converted). As for the experimental part: The sACE-inhibitory capacity was determined using a fluorimetric assay, as reported by Tavares et al., with some modifications. Briefly, the ACE working solution was prepared according to Murray et al. using rabbit lung posteriorly diluted in 0.15 M Tris-base buffer (pH 8.3) with 0.1 mM ZnCl2. A total of 40 µL of the working solution was added to each 96-well microplate well (Porvair, Norfolk, UK), then adjusted to 80 µL by adding distilled water to the blank (B), control (C), or samples (S). The enzyme reaction was started by adding 160 µL of 0.45 mM o-Abz-Gly-p-Phe(NO2)-Pro-OH dissolved in 0.15 M Tris-base buffer (pH 8.3) containing 1.125 M NaCl, and the mixture was incubated at 37 °C for 30 min. The fluorescence generated was measured using a multiscan microplate fluorimeter (FLUOstar optima, BMG Labtech, Ortenberg, Germany) with excitation and emission wavelengths of 350 and 420 nm, respectively. Data were processed with the software FLUOstar control (version 1.32 R2, BMG Labtech, Ortenberg, Germany). The assay was performed in triplicate, and the resulting data were subjected to a nonlinear fit using GraphPad Prism 5 to determine the IC50 (half maximal inhibitory concentration) values. The resulting data (n = 3) were expressed as the mean ± SD (standard deviation).

[3] abbreviates: Table S2, ref [3] of supplement, read-out: In Vitro (IC50).
Setting [4] is: Table S2, peptides from in vitro digestion (pepsin, pancreatin) of edible insects, ref [14] of supplement.
[5] abbreviates: Table S2, T. molitor larvae, ref [21] of supplement, read-out: In Vitro (IC50).
The mark [6] stands for this setting: Table S2, ref [17] of supplement, read-out: In Vitro (IC50).
Where [7] appears, read: peptides found in fermented milks, read-out: IC50 values for sACE.

Turning to “PGKVHIT [literature peptide from Apis mellifera pupae hydrolysate]”, the IC50 in the assay with sACE (setting [3]) is 224 µM.

GNPWM: in the assay on sACE (Table S2, ref [10] of supplement, read-out: In Vitro (IC50)), the IC50 was 21.7 µM.

On to Val-Phe [VF], for which the “inhibitory activity in thoracic aortic rings from male Wistar rats” value in the assay with thoracic aortic rings is “inhibitory activity”. Further, in assay [1], the “anti-hypertensive activity in SHR” value is on record as “anti-hypertensive activity” and the “in vivo antihypertensive capacity” value is recorded as “demonstrated in vivo antihypertensive capacity”. In addition, the IC50 in the assay on sACE (Table S2, […], ref [19] of supplement, read-out: In Vitro (IC50)) was 120 to 144 µM. For APPPKK, the “In Vitro (IC50)” value in the assay on sACE (Table S2, ref [9] of supplement) is 47 µg/mL. Turning to “VAPEEHPV [literature peptide from Gryllodes sigillatu digestion]”, in the assay with sACE (setting [4]), the “In Vitro (IC50)” value is 18.85 ± 0.05 µg/mL. For Ala-Val-Phe [AVF], the “inhibitory activity in thoracic aortic rings from male Wistar rats” value in the assay on thoracic aortic rings is given as “no inhibitory activity”. Further, the “anti-hypertensive activity in SHR” value in assay [1] is reported as “anti-hypertensive activity”. The IC50 in the assay on sACE (Table S2, ref [18] of supplement, read-out: In Vitro (IC50)) was 2120 µM; with sACE (Table S2, synthesized peptides, ref [19] of supplement, read-out: In Vitro (IC50)), 1370 to 1430 µM. Regarding “KVEGDLK [literature peptide from Gryllodes sigillatu digestion]”, the IC50 in the assay with sACE is 3.67 µg/mL.

In the case of HILG, the IC50 with sACE (setting [5]) was 2820 µM.

“YETGNGIK [literature peptide from Schistocerca gregaria digestion]”: the IC50 in the assay with sACE is recorded as 3.25 µg/mL. CAIAW [CAIAW]: in assay [2], the IC50 is 6.56 µM and 6.55 µM.

For “NYVADGLG [literature peptide from Tenebrio molitor larvae digestion]”, the “In Vitro (IC50)” value in the assay on sACE (setting [4]) is reported as 12.09 ± 0.08 µg/mL. In the case of `CC[C@H](C)[C@H](NC(=O)[C@@H](N)CCC(N)=O)C(=O)N[C@H](C(=O)N[C@@H](Cc1c[nH]c2ccccc12)C(=O)O)C(C)C` [QIVW] (H-QIVW-OH), the half-maximal inhibitory concentration (IC50) in assay [2] was 140 µM. Turning to FFGT, in the assay with sACE (setting [6]), the IC50 is 19.4 ± 1.7 µM. For the molecule “AVFPSIVGR [literature peptide from Apis mellifera pupae hydrolysate]”, the IC50 in the assay on sACE (read-out: IC50) is 6.64 µM. For “AAAPVAVAK [literature peptide from Tenebrio molitor larvae digestion]”, the IC50 with sACE is recorded as 8.31 µg/mL. For the molecule YAN, the “In Vitro (IC50)” value in the assay on sACE (Table S2, T. molitor larva flour, alcalase, ref [20] of supplement) is 17 µg/mL. The IC50 in the assay with sACE (setting [5]) was 172 µM. For LLKPY, the IC50 with sACE (Table S2, ref [2] of supplement, read-out: In Vitro (IC50)) was 54.9 µM.

As for “IIAPPER [literature peptide from Gryllodes sigillatu digestion]”, the IC50 in the assay on sACE is given as 6.93 µg/mL. For “AGDDAPR [literature peptide from Tenebrio molitor protein concentrate digestion]”, the IC50 with sACE is 8.34 µg/mL. On to IIIGW [IIIGW], for which the IC50 in assay [2] is 54.6 µM and 54.5 µM. As for AVQPCF [AVQPCF], the IC50 in assay [2] was 3.69 µM. For ASL, the IC50 with sACE (Table S2, ref [5] of supplement, read-out: In Vitro (IC50)) is 102 µM. With VPP, the IC50 with sACE (setting [7]) was 9 µM.

On to “FDPFPK (LCFDPFPK) [literature peptide from Schistocerca gregaria digestion]”, for which, in the assay with sACE (setting [4]), the “In Vitro (IC50)” value is 79.25 ± 0.04 µg/mL. Take “GKDAVIV [literature peptide from Schistocerca gregaria digestion]”: the “In Vitro (IC50)” value in the assay on sACE (setting [4]) is on record as 12.82 ± 0.02 µg/mL. On to KHV, for which the IC50 in the assay with sACE (Table S2, ref [8] of supplement, read-out: In Vitro (IC50)) is 12.8 µM. Regarding “PPVLVFV [literature peptide from Apis mellifera pupae hydrolysate]”, the IC50 in the assay with sACE (setting [3]) was 47.8 µM. Turning to IPP, in the assay on sACE (setting [7]), the IC50 is 5 µM. With PIVCF [PIVCF], the IC50 in assay [2] was 4.64 µM and 4.63 µM.

With NIKY, the IC50 with sACE (setting [5]) is 52.2 µM. As to QGLGY, the IC50 with sACE (setting [5]) is 264 µM. Consider LSRVP, for which the IC50 in the assay with sACE (setting [6]) was 52.7 ± 4.04 µM. Turning to `CC(C)[C@H](NC(=O)[C@@H](N)CC(=O)O)C(=O)N[C@@H](Cc1c[nH]c2ccccc12)C(=O)O` [DVW] (H-Asp-Val-Trp-OH), in assay [2], the IC50 is 195 µM and 196 µM.

In the case of GAMVVH, the IC50 with sACE (Table S2, ref [7] of supplement, read-out: In Vitro (IC50)) was 19.4 ± 0.21 µM. Regarding “AIGVGAIER [literature peptide from Schistocerca gregaria digestion]”, the “In Vitro (IC50)” value with sACE (setting [4]) is 14.43 ± 0.02 µg/mL. For “YDDGSYKPH [literature peptide from Tenebrio molitor larvae digestion]”, the IC50 in the assay with sACE was 5.81 µg/mL. “LAPSTIK [literature peptide from Gryllodes sigillatu digestion]”: the “In Vitro (IC50)” value in the assay on sACE (setting [4]) was 11.14 ± 0.08 µg/mL.

For RYL, the IC50 with sACE (peptide from Bombyx mori hydrolysates, read-out: IC50) is 3.31 µM.
